The subject of series [1] is A549. Put plainly: Growth inhibition of human A549 cells. It is filed as functional, cell-based.
For series [2], the system named is Caenorhabditis elegans. Put plainly: Increase in lifespan of Caenorhabditis elegans N2 var. Bristol at 40 uM. It is filed as functional.
The subject of series [3] is Caenorhabditis elegans. Put plainly: Increase in lifespan of Caenorhabditis elegans age-1(hx546) at 40 uM. It is filed as functional.
Series [4] concerns the target T1, Serine/threonine-protein kinase PAK 1 (Homo sapiens, UniProt Q13153). Put plainly: Inhibition of HA-PAK1 (unknown origin) using histone H4 substrate and [gamma-32P] ATP by autoradiography.
Series [5] has as its target T2, Serine/threonine-protein kinase PAK 1 (Mus musculus, UniProt O88643). Put plainly: Inhibition of PAK1 in v-Ha-RAS-transformed mouse NIH/3T3 cells incubated for 1 hr by immunoblot analysis.
Series [6] deals with Mitogen-activated protein kinase kinase kinase 11 (Homo sapiens, UniProt Q16584). Put plainly: Inhibition of flag-tagged MLK3 (unknown origin) expressed in human HeLa cells assessed as reduction in enzyme autophosphorylation incubated for 20 mins by immunoprecipitatation. It is filed as cell-based.
Chain of Mitogen-activated protein kinase kinase kinase 11 (Q16584 whole entry): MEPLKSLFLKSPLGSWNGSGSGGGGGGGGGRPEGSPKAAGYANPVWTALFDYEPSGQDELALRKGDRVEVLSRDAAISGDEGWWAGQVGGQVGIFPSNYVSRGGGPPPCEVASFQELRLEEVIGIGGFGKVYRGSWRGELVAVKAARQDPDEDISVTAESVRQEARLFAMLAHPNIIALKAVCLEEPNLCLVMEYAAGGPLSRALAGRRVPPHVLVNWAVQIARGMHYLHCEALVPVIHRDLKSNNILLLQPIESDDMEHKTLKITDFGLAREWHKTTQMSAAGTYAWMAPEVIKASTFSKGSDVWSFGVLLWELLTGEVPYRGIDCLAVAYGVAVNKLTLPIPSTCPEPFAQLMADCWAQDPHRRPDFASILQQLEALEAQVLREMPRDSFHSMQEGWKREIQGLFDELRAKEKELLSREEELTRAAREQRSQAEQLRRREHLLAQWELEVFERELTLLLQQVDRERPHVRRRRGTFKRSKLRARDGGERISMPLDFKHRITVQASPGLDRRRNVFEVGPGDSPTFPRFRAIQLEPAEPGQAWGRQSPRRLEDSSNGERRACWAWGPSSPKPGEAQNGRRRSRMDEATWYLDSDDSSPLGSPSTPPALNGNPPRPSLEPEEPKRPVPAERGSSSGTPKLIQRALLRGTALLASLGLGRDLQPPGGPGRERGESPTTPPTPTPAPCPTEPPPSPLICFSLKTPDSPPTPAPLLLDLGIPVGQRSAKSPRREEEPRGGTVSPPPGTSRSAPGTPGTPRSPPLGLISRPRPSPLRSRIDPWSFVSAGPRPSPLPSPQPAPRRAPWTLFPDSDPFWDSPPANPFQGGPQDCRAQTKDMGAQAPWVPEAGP
The subject of series [7] is A549. Put plainly: Growth inhibition of RAS-transformed human A549 cells. It is filed as functional, cell-based.
In series [8] the test system is Caenorhabditis elegans. Put plainly: Increase in lifespan of Caenorhabditis elegans. It is filed as functional.
In series [9] the target is T1, Serine/threonine-protein kinase PAK 1. Put plainly: Inhibition of PAK1 in human MCF7 cells transfected with constitutively active NH2-terminally truncated C1199 Tiam1 construct. It is filed as cell-based.
For series [10], the target named is Serine/threonine-protein kinase PAK 3 (Homo sapiens, UniProt O75914). Put plainly: Inhibition of GST-tagged PAK3 (unknown origin) expressed in Escherichia coli using peptide PC9 substrate.
Chain of Serine/threonine-protein kinase PAK 3 (O75914 whole entry): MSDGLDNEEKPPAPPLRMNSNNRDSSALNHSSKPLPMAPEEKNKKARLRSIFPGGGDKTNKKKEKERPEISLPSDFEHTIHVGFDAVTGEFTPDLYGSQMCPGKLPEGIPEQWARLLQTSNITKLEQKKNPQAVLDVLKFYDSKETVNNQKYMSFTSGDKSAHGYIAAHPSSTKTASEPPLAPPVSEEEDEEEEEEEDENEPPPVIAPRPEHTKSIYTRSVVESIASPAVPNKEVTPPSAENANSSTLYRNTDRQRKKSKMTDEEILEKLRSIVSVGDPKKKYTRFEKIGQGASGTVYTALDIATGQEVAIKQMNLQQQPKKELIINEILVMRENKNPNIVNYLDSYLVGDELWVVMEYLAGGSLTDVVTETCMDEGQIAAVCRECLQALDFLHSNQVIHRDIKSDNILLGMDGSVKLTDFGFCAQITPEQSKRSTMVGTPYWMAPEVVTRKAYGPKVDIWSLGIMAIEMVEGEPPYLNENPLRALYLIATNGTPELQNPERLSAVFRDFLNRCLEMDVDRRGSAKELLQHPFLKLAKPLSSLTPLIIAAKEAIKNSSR
The target of a further series is Protein kinase C (PKC). Put plainly: Inhibition of rat brain PKC using […] derived peptide substrate.
Series [11] addresses T1, Serine/threonine-protein kinase PAK 1. Put plainly: Inhibition of recombinant human PAK1 by ADP-Glo kinase assay. In general terms: ADP-Glo first removes unused ATP, then detects ADP through luciferase.
The target is the same in series [12]. Put plainly: Inhibition of PAK1 (unknown origin).
For series [13] the target is unchanged. Put plainly: Inhibition of PAK1 (unknown origin) by cell culture based assay.
Series [14] is described as follows: Growth stimulation of HFDPC assessed as increase in cell viability incubated for 3 days by MTT assay. It is filed as functional, Homo sapiens. In general terms: Tetrazolium dyes change colour on reduction, which living cells bring about.
Series [15] in a line: Cytotoxicity in human M8 cells by MTT assay. It is filed as functional, cell-based.
Series [16] can be described thus: Potency index, ratio of IC50 for caffeic acid to IC50 for test compound for cytotoxicity in human M8 cells by MTT assay. It is filed as functional.
For series [17], the system named is Caenorhabditis elegans. Put plainly: Increase in lifespan of Caenorhabditis elegans N2 at 100 uM. It is filed as functional.
Another series has as its system Mus musculus. Put plainly: Increase in lifespan of C57BL/6J mouse at 2 mg/kg/day dosed in drinking water. It is filed as functional. To be noted: feed or water.
Series [18] is described as follows: Stability assessed as shelf life at 4 degC. It is filed as physicochemical.
Series [19] concerns the target T2, Serine/threonine-protein kinase PAK 1. Put plainly: Inhibition of PAK1 in v-Ha-RAS-transformed mouse NIH/3T3 cells incubated for 48 hrs by immunoblot analysis. For orientation: A western blot detects proteins with antibodies after separation by electrophoresis.
The target of series [20] is T1, Serine/threonine-protein kinase PAK 1. Put plainly: Inhibition of PAK1 in estrogen-stimulated human MCF7 cells incubated for 48 hrs by immunoblot analysis. It is filed as cell-based.
Another series has as its system PC-3. Put plainly: Antitumor activity against human PC3 cells wenografted in mouse assessed as inhibition of tumor growth at 3 mg/kg/day. It is filed as functional. To be noted: read-out: TGI.
For series [21], the target named is T1, Serine/threonine-protein kinase PAK 1. Put plainly: Inhibition of PAK1 in human A549 cells. It is filed as cell-based.
The test system of series [22] is Caenorhabditis elegans. Put plainly: Increase in lifespan of Caenorhabditis elegans N2 CGCb under 2 mM H2O2-induced oxidative stress conditions at 1 to 50 mg/L. It is filed as functional.

The results in this text go back to ChEMBL document CHEMBL4270502, “From bench (laboratory) to bed (hospital/home): How to explore effective natural and synthetic PAK1-blockers/longevity-promoters for cancer therapy” (Eur J Med Chem, 2017).

A word on the IC50: it is the concentration that gives 50% inhibition. Broadly, the ILS is the gain in survival time of treated over control animals, in per cent.

T1 sequence (Q13153 whole entry): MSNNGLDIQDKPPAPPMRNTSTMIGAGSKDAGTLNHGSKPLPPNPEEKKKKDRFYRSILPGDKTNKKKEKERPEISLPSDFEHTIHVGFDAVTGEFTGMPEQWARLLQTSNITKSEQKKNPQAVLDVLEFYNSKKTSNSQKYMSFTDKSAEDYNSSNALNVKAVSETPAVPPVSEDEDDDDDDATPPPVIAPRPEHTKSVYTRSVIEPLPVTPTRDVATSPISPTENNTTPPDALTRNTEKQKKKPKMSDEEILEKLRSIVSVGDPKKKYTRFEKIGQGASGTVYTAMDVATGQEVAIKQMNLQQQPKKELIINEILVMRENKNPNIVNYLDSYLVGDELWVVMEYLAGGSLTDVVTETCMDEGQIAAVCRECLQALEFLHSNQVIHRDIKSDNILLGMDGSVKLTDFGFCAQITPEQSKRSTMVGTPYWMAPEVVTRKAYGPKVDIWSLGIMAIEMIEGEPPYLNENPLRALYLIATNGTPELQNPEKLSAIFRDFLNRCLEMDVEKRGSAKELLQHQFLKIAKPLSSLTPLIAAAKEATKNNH
T2 sequence (O88643 whole entry): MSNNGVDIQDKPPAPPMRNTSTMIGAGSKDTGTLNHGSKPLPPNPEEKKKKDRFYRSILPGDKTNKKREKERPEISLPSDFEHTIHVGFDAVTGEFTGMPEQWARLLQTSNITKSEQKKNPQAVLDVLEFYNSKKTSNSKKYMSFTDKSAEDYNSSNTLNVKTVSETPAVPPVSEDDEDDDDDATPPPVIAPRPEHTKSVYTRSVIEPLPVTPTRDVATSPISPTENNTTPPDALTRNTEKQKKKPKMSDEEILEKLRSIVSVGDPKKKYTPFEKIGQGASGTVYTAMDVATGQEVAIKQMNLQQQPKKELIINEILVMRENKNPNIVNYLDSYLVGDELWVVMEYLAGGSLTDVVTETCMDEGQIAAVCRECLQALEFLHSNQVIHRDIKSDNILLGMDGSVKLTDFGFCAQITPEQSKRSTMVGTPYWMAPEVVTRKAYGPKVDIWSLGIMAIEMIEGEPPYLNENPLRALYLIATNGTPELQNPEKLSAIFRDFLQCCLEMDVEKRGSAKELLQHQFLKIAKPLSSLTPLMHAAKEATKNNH

`CC1=C(/C=C/C(C)=C/C=C/C(C)=C/C=C/C=C(C)/C=C/C=C(C)/C=C/C2=C(C)C(=O)C(O)CC2(C)C)C(C)(C)CC(O)C1=O` (stereo not given): in the series on A549 [1], the IC50 is 40 µM. Further, the Activity in the series with Caenorhabditis elegans [2] and in the series with Caenorhabditis elegans [3] was 16 - 30% in each case. As for `CCCCCC(=O)c1c(O)cc(OC)c(Cl)c1O`, the 50% inhibitory concentration (IC50) is 2 to 3 µM in the series with A549 [1] and 2.5 µM in [4]. For `CCSCc1ccc2c(c1)c1c3c(c4c5cc(CSCC)ccc5n5c4c1n2C1C[C@](O)(C(=O)OC)[C@]5(C)O1)CNC3=O`, the IC50 in the series with A549 [1] is 1 µM; in [5], 1 µM; in series [6] it was 0.02 µM; in the series on A549 [7], 1 µM. In the series on A549 [1], `Cc1ccc(-c2nn(C(C)(C)C)c3ncnc(N)c23)cc1` displayed an IC50 of 0.01 µM.

`CC(C)NC(=O)N1CC[C@H](NC2=Nc3cc(F)ccc3N(CC(F)F)c3ccc(Cl)cc32)C1` returned an IC50 in the series on A549 [1] of 0.25 µM. As for `CNc1ncc2cc(-c3ccc(-c4cccc(C)n4)cc3Cl)c(=O)n(C[C@H]3OC[C@H](N)CO3)c2n1`, the IC50 with A549 [1] was > 1 µM. Molecule `CCS(=O)(=O)c1cc(Nc2ncc(F)c(N(Cc3ccccc3C#N)c3cc(CO)ccc3C)n2)ccc1N1CCN(C)CC1` registered an IC50 in the series on A549 [1] of 0.06 µM.

With `COc1ccccc1-n1cc(COC(=O)C2CCn3c(C(=O)c4ccccc4)ccc32)nn1` (stereo not given), the ILS in the series on Caenorhabditis elegans [8] was found to be 30%. Molecule `Cc1cc(C)cc(NC(=N)Nc2ccccc2C(F)(F)F)c1` displayed an IC50 in [9] of 4 µM. On to `CN[C@@H]1C[C@H]2O[C@@](C)([C@@H]1OC)n1c3ccc(O)cc3c3c4c(c5c6cc(O)ccc6n2c5c31)C(=O)NC4`, for which the IC50 (in [10]; at Protein kinase C (PKC)) was 0.001 µM each time. `COc1ccccc1-n1cc(COC(=O)/C=C/c2ccc(O)c(O)c2)nn1` displayed an IC50 in the series on A549 [1] of 0.225 µM. Take `CC(=O)CCC=C(C)CCC=C(C)CCC=C(C)CCC=C(C)C`: the IC50 in the series on A549 [1] was determined as 10 µM. Regarding `CC(C)(C)c1cc(/C=C(\C#N)C(=S)NCCCCCCN)cc(C(C)(C)C)c1O`, in the series on A549 [1], half-maximal inhibition (IC50) was put at 0.005 µM. In the case of `CO[C@@H]1[C@@H](O)[C@H](O[C@@H]2[C@@H](O)[C@H](O[C@H]3[C@H](O)[C@@H](O[C@@H]4OC[C@@H](O)[C@H](O)[C@H]4O)[C@H](O[C@H]4[C@H](O[C@H]5CC[C@]6(C)[C@@H]7CCC89C(=O)O[C@@](C)(CCCC(C)C)[C@H]8[C@@H](OC(C)=O)C[C@@]9(C)C7=CC[C@H]6C5(C)C)OC[C@@H](OS(=O)(=O)O)[C@@H]4O)O[C@@H]3C)OC[C@H]2O)O[C@H](CO)[C@H]1O` (stereo not given in full), the IC50 is 0.6 to 1.5 µM in the series on A549 [1], 1 µM in series [11] and 1 µM in the series on A549 [7]. Turning to `COc1ccccc1-n1cc(COC(=O)[C@]23CC[C@@H](C)[C@H](C)[C@H]2C2=CC[C@@H]4[C@@]5(C)CC[C@H](O)C(C)(C)[C@@H]5CC[C@@]4(C)[C@]2(C)CC3)nn1`, the IC50 in the series with A549 [1] is 0.1 µM. In the case of `Oc1ccc2ccccc2c1SSc1c(O)ccc2ccccc12`, the IC50 with A549 [1] amounted to 30 µM; in [12], 1 µM. For `CC(C)=CCc1cc(/C=C/C(=O)O)cc(CC=C(C)C)c1O` [ARTEPILLIN], the IC50 (in series [13]; in the series with A549 [1]) was 25 µM in each case. Also, in [14], the ED is 20 µM. For the molecule `O=C(/C=C/c1ccc(O)c(O)c1)OCCc1ccccc1` [CAFFEIC ACID PHENETHYL ESTER], the IC50 (in series [15]; in the series with A549 [1]) was 10 µM each time. The “Ratio IC50” value in [16] is recorded as 10. Besides, in the series on Caenorhabditis elegans [17], the Activity worked out at 15%.

Turning to `O=C(O)/C=C/c1ccc(O)c(O)c1` [CAFFEIC ACID], in series [15], the IC50 stood at 100 µM. On to `CC(C)(O)/C=C/C(=O)[C@](C)(O)[C@H]1[C@H](O)C[C@@]2(C)[C@@H]3CC=C4[C@@H](C=C(O)C(=O)C4(C)C)[C@]3(C)C(=O)C[C@]12C` [CUCURBITACIN I], for which the midpoint of inhibition in the series with A549 [1], the IC50, lay at 0.14 µM. In the series on A549 [1], `COc1cc(/C=C/C(=O)CC(=O)/C=C/c2ccc(O)c(OC)c2)ccc1O` [CURCUMIN] returned an IC50 of 23 µM. In turn, `C[C@H](CCCCC(=O)O)O[C@@H]1O[C@@H](C)[C@H](O)C[C@H]1O` [DAUMONE] returned an IC50 in the series with A549 [1] of 0.02 µM. The molecule also yielded an ILS at 2 mg/kg/day in the series on Mus musculus of 50%. Take `COc1ccc2[nH]cc(CCNC(C)=O)c2c1` [MELATONIN]: in the series with A549 [1], the IC50 came out at 1300 µM.

Take `CC(C)[C@]12O[C@H]1[C@@H]1O[C@]13[C@]1(O[C@H]1C[C@H]1C4=C(CC[C@@]13C)C(=O)OC4)[C@@H]2OCOP(=O)([O-])[O-].[Na+].[Na+]` [MINNELIDE]: the Stability in series [18] was 2 yr. For `COc1c(C)c2c(c(O)c1C/C=C(\C)CCC(=O)OCCN1CCOCC1)C(=O)OC2` [MYCOPHENOLATE MOFETIL], the IC50 in the series with A549 [1] lay within 0.05 to 0.5 µM. Turning to `CC(C)=CCC/C(C)=C/Cc1c(O)cc2c(c1O)C(=O)C[C@@H](c1ccc(O)c(O)c1)O2` [NYMPHAEOL A], the IC50 in the series on A549 [1] is 4 to 7 µM. Consider `CC(C)=CCC/C(C)=C/Cc1c([C@@H]2CC(=O)c3c(O)cc(O)cc3O2)ccc(O)c1O` [NYMPHAEOL B], for which the IC50 with A549 [1] lay within 4 to 7 µM. Take `CC(C)=CCC/C(C)=C/Cc1c([C@@H]2CC(=O)c3c(cc(O)c(CC=C(C)C)c3O)O2)ccc(O)c1O` [NYMPHAEOL C]: the IC50 in the series on A549 [1] lay within 4 to 7 µM. As for `Oc1ccc(/C=C/c2cc(O)cc(O)c2)cc1` [RESVERATROL], the IC50 came out at 30 µM in the series with A549 [1] and 15 µM in series [11].

Consider `C/C=C1\NC(=O)[C@H]2CSSCC/C=C/[C@H](CC(=O)N[C@H](C(C)C)C(=O)N2)OC(=O)[C@H](C(C)C)NC1=O` [ROMIDEPSIN], for which the IC50 in series [19] and in series [20] was < 0.001 µM in each case. With `COCCn1c2c([n+](Cc3cnccn3)c1C)C(=O)c1ccccc1C2=O` [SEPANTRONIUM BROMIDE], the IC50 with A549 [1] worked out at 0.0134 µM; in series [21], 0.5 µM. Further, in the series on PC-3, the inhibition in vivo at 3 mg/kg/day is > 50%. Molecule `CC(C)[C@]12O[C@H]1[C@@H]1O[C@]13[C@]1(O[C@H]1C[C@H]1C4=C(CC[C@@]13C)C(=O)OC4)[C@@H]2O` [TRIPTOLIDE] showed an IC50 in the series with A549 [1] of 0.03 µM. The ILS with Caenorhabditis elegans [8] and with Caenorhabditis elegans [22] was 20% in each case. With `CC(C)(C)c1cc(/C=C(\C#N)C(N)=S)cc(C(C)(C)C)c1O` [TYRPHOSTIN AG 879], the IC50 in the series with A549 [1] worked out at 0.005 µM.
